# Measured values from publication PMC11532494 (Nature Communications, 2024).
# Values joined by “and” are separate entries in the source; they are usually repeats but may differ in a detail not shown here. Equal entries are not always repeated.
# How the values were obtained:
# PA1409 = PA1409 (Pseudomonas aeruginosa, UniProt Q9I3T5); assay: Acetyl-polyamine deacetylase assay (positive control); type: biochemical
# VsHdaH (1b) = type: biochemical, Vibrio sp.; conditions: VsHdaH (1b) 3µM; single samples (replicates)
# RsPrpH (1b) = assay: Acetyl-polyamine deacetylase assay; type: biochemical, Rhizorhabdus sp.; conditions: RsPrpH 3µM; single samples (replicates)
# RwDmhA (1b) = RwDmhA (1b) (Rhizorhabdus wittichii, UniProt A0A067XIQ6); type: biochemical; conditions: RwDmhA (1b) 3µM; single samples (replicates)
# RwDmhA (1b), sequence (A0A067XIQ6 1-369): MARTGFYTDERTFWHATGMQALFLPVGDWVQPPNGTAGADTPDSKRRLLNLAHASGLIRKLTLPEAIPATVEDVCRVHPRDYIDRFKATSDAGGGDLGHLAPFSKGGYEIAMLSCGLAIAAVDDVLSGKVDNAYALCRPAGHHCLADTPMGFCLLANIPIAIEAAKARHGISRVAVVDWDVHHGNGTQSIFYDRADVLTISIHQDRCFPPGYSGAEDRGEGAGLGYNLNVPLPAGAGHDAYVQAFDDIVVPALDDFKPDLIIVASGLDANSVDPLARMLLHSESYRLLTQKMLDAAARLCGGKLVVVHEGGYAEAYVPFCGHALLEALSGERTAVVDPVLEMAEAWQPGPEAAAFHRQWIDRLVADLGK
# KpHdaH (1b) = KpHdaH (1b) (Klebsiella pneumoniae, UniProt A0A377Z5F6); type: biochemical; conditions: KpKDAC (1b); single samples (replicates)
# KpHdaH (1b), sequence (A0A377Z5F6 1-371): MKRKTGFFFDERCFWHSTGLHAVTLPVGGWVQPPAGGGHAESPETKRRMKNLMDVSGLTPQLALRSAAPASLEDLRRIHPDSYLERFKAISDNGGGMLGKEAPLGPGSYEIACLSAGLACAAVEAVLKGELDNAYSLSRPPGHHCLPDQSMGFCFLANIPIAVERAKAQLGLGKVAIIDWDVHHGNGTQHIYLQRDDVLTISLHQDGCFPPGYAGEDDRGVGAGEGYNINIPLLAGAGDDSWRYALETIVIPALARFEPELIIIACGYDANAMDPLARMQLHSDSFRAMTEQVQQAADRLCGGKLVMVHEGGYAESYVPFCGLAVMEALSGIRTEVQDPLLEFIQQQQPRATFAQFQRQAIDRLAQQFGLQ
# BsAcuC (2c) = biological target: T1, BsAcuC (2c) (Bacillus subtilis, UniProt P39067); assay: Acetyl-polyamine deacetylase assay; type: biochemical; conditions: BsAcuC (2c) 3µM; single samples (replicates)
# T1 construct: made in house; host or cells: E. coli BL21 (DE3)
# T1 sequence (P39067 1-387): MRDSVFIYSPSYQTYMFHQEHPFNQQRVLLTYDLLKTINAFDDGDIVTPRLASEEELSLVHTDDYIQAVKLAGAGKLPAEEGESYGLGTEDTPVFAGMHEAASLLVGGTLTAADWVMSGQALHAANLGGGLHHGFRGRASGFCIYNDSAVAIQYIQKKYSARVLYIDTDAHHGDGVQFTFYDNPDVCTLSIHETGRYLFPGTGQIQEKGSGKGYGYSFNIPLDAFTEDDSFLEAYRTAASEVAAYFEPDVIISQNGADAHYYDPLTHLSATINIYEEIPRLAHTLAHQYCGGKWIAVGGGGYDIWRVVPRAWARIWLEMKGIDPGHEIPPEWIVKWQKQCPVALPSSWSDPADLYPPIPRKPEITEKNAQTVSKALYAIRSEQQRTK
# VcHdaH (5b) = assay: Acetyl-polyamine deacetylase assay; type: biochemical, Vibrio cholerae; conditions: VcHdaH (5b) 6µM; single samples (replicates)
# LcApaH (3) = LcApaH (3) (Legionella cherrii, UniProt A0A0W0SGS1); type: biochemical
# LcApaH (3), sequence (A0A0W0SGS1 1-425): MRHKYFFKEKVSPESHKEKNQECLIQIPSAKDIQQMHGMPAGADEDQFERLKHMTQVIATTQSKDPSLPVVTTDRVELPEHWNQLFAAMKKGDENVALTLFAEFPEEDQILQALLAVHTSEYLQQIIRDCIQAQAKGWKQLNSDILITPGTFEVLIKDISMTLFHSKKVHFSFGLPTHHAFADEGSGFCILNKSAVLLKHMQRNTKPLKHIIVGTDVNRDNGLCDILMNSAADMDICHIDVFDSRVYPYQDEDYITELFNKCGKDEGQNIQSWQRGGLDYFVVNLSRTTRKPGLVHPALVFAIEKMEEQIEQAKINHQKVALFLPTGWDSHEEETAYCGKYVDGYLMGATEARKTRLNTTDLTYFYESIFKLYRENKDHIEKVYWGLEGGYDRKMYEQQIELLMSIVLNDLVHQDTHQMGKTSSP
# [1] = PA1409 (positive control enzyme), single samples (replicates)
# PA1409, sequence (Q9I3T5 whole entry): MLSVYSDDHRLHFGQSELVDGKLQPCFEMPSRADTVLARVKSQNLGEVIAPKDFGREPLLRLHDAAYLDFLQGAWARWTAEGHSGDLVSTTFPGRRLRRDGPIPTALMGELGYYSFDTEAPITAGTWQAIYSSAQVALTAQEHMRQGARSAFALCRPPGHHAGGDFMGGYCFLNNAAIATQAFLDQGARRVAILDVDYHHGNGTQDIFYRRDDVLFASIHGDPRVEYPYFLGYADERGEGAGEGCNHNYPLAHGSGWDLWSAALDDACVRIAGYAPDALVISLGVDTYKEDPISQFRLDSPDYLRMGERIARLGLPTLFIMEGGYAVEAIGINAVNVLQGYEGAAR
SMILES,"acetate released, g/l (VsHdaH (1b))","acetate released, mM (VsHdaH (1b))",mM normalized to enzyme concentration (VsHdaH (1b)),"acetate released, g/l (RsPrpH (1b))","acetate released, mM (RsPrpH (1b))",mM normalized to enzyme concentration (RsPrpH (1b)),"acetate released, g/l (RwDmhA (1b))","acetate released, mM (RwDmhA (1b))",mM normalized to enzyme concentration (RwDmhA (1b)),"acetate released, g/l (KpHdaH (1b))","acetate released, mM (KpHdaH (1b))",mM normalized to enzyme concentration (KpHdaH (1b)),"acetate released, g/l (BsAcuC (2c))","acetate released, mM (BsAcuC (2c))",mM normalized to enzyme concentration (BsAcuC (2c)),"acetate released, g/l (VcHdaH (5b))","acetate released, mM (VcHdaH (5b))",mM normalized to enzyme concentration (VcHdaH (5b)),other results
CC(=O)NCCCNCCCCNCCCN [N1-acetyl-spermine],-0.003525 g/L and 0.003264 g/L and 0.003525 g/L,-0.0587 mM and 0.05435 mM and 0.0587 mM,-0.01957 mM and 0.01812 mM and 0.01957 mM,-0.0006527 g/L and -0.0001305 g/L and -0.004569 g/L,-0.01087 mM and -0.002174 mM and -0.07609 mM,-0.003623 mM and -0.0007246 mM and -0.02536 mM,0.0001305 g/L,0.002174 mM and -0.002174 mM,-0.01812 mM and 0.0007246 mM and -0.0007246 mM,0.02153 g/L and 0.02371 g/L and 0.03188 g/L,0.3585 mM and 0.3948 mM and 0.5309 mM,0.07169 mM and 0.07895 mM and 0.1062 mM,0.002742 g/L and 0.0001305 g/L,0.04565 mM and 0.002174 mM,0.01522 mM and 0.0007246 mM,-0.0009138 g/L and -0.003003 g/L and -0.003264 g/L,-0.01522 mM and -0.05 mM and -0.05435 mM,-0.002536 mM and -0.008333 mM and -0.009058 mM,"acetate released, g/l (PA1409; [1]): 0.1471 g/L and 0.1516 g/L; acetate released, mM (PA1409; [1]): 2.449 mM and 2.524 mM; mM normalized to enzyme concentration (PA1409; [1]): 24.4938 mM and 25.2427 mM"
CC(=O)NCCCCN [N1-acetyl-putrescine],0.001436 g/L and 0.0003916 g/L and -0.0006527 g/L,0.02391 mM and 0.006522 mM and -0.01087 mM,0.007971 mM and 0.002174 mM and -0.003623 mM,0.003525 g/L and 0.00483 g/L and 0.003003 g/L,0.0587 mM and 0.08044 mM and 0.05 mM,0.01957 mM and 0.02681 mM and 0.01667 mM,0.001436 g/L and 0.006919 g/L and 0.0009138 g/L,0.02391 mM and 0.1152 mM and 0.01522 mM,0.007971 mM and 0.03841 mM and 0.005072 mM,0.01615 g/L and 0.02135 g/L and 0.02198 g/L,0.2105 mM and 0.2784 mM and 0.2865 mM,0.02105 mM and 0.02784 mM and 0.02865 mM,0.001436 g/L and 0.00248 g/L and -0.003264 g/L,0.02391 mM and 0.0413 mM and -0.05435 mM,0.007971 mM and 0.01377 mM and -0.01812 mM,-0.003786 g/L and 0.0001305 g/L and 0.01136 g/L,-0.06304 mM and 0.002174 mM and 0.1891 mM,-0.01051 mM and 0.0003623 mM and 0.03152 mM,"A1-A2 (PA1409; absorbance difference between the two time points, sheet Figure 2d): 0.278 and 0.275; (A1-A2)-B (PA1409; absorbance difference minus mean blank, sheet Figure 2d): 0.21 and 0.207; acetate released, g/l (LcApaH (3)): 0.002824 g/L and 0.001479 g/L; acetate released, mM (LcApaH (3)): 0.04702 mM and 0.02463 mM; mM normalized to enzyme concentration (LcApaH (3)): 0.03135 mM and 0.01642 mM"
